Patent EP2727916A1, “Neuroprotective multi-target directed drugs” (Universitat Autònoma de Barcelona, priority 2012, dated 2014)
Like-named read-outs stand apart in the source and are kept apart here.

Legend:
[1] = molecular target: T1, bovine lung SSAO (Bos taurus, UniProt Q9TTK6); assay: Inhibition of semicarbazide sensitive amine oxidase (SSAO), radiochemical; assay type: biochemical; settings: bovine lung SSAO; mean ± standard error of the mean; read-out: IC50 bovineSSAO
T1 construct: and bovine lung SSAO by compounds of the invention; from tissue; host or cells: bovine lung
T1 sequence (Q9TTK6 1-763): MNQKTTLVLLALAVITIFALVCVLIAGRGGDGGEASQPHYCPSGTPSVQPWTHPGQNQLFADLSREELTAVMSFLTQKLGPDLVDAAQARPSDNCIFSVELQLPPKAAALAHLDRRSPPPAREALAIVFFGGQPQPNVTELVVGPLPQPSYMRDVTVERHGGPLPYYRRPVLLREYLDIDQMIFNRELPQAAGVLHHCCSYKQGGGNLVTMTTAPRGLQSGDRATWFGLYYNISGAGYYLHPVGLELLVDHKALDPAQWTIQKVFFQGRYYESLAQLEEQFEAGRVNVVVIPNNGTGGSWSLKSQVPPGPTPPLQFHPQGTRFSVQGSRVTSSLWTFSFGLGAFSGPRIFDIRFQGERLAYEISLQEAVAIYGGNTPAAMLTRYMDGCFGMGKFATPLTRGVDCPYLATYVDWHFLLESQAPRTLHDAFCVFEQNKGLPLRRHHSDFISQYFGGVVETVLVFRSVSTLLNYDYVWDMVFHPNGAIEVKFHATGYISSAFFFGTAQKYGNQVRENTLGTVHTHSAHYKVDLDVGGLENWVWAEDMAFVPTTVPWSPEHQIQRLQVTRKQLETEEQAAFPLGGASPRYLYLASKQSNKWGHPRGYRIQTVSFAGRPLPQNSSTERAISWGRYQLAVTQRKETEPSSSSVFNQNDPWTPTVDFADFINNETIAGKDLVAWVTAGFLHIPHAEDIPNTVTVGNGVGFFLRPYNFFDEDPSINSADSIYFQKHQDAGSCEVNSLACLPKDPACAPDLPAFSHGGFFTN

[2] = molecular target: T2, electrophorus electricus acetylcholinesterase (eeAChE) (Electrophorus electricus, UniProt O42275); assay: biochemical; assay type: biochemical; settings: 20 minutes incubation at 37°C; mean ± standard error of the mean; read-out: IC50 EeAChE
T2 sequence (O42275 24-633): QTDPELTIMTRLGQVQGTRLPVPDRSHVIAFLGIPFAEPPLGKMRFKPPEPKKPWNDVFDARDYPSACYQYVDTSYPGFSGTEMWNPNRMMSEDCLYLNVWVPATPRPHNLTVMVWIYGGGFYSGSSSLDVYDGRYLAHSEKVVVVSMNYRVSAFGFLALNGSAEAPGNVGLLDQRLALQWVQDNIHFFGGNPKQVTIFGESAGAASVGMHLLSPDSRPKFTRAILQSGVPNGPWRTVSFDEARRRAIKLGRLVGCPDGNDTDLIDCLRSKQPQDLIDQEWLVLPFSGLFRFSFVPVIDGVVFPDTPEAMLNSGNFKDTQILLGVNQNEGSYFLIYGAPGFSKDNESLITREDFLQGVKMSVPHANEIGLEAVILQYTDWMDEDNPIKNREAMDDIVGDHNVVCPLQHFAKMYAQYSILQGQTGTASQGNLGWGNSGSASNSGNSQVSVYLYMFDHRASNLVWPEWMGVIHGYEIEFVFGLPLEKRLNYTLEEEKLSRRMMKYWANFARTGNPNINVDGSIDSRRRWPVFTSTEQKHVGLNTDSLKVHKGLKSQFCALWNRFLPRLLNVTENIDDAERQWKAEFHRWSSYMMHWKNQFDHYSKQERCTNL

[3] = molecular target: T3, equine serum butyrylcholinesterase (eqBuChE) (Equus caballus, UniProt P81908); assay: biochemical; assay type: biochemical
T3 sequence (P81908 whole entry): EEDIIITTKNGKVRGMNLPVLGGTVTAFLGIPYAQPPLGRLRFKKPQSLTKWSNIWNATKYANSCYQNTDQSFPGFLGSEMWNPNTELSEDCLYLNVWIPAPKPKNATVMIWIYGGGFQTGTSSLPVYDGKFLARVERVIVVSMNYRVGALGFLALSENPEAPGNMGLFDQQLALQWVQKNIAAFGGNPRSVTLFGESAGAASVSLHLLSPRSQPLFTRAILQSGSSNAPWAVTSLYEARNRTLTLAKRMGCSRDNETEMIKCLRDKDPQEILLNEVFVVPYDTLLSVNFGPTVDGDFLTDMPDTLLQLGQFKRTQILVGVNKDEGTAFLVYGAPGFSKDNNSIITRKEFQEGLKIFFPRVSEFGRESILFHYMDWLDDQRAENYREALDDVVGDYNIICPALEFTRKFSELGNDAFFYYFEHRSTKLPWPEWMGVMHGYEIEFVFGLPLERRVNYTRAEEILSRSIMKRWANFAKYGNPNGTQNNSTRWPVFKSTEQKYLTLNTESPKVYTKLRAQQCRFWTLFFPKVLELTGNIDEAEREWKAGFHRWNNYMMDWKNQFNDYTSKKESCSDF

[4] = molecular target: T4, ratMAO-A (Rattus norvegicus, UniProt P21396); assay: MAO-A inhibition, radiometric method of Fowler and Tipton (14C 5-HT); assay type: biochemical; set-up: MAO-A and MAO-B activities were determined in rat brain homogenate; from tissue; host or cells: rat brain homogenate per the methods; settings: 30 min pre-incubation at 37 °C; 100µM 5-HT; mean ± standard error of the mean
T4 sequence (P21396 1-526): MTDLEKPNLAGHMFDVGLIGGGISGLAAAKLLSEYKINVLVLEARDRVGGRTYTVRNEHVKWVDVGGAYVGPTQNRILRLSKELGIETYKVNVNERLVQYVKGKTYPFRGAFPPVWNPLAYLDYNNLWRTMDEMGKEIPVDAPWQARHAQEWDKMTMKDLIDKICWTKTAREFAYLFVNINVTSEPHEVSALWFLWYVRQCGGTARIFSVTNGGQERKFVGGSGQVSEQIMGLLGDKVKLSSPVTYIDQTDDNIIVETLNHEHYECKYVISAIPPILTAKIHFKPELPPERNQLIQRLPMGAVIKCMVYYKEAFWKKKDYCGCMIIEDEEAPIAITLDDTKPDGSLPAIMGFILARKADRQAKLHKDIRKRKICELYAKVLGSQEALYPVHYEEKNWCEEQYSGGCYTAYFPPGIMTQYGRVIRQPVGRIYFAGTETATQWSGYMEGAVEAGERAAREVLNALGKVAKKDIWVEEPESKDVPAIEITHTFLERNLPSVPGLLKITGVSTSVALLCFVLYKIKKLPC

[5] = molecular target: T5, ratMAO-B (Rattus norvegicus, UniProt P19643); assay: MAO-B inhibition, radiometric method of Fowler and Tipton (14C PEA); assay type: biochemical; set-up: MAO-A and MAO-B activities were determined in rat brain homogenate; from tissue; host or cells: rat brain homogenate per the methods; settings: for IC50: 30 min pre-incubation at 37 °C, 20 µM PEA, mean ± standard error of the mean
T5 sequence (P19643 1-520): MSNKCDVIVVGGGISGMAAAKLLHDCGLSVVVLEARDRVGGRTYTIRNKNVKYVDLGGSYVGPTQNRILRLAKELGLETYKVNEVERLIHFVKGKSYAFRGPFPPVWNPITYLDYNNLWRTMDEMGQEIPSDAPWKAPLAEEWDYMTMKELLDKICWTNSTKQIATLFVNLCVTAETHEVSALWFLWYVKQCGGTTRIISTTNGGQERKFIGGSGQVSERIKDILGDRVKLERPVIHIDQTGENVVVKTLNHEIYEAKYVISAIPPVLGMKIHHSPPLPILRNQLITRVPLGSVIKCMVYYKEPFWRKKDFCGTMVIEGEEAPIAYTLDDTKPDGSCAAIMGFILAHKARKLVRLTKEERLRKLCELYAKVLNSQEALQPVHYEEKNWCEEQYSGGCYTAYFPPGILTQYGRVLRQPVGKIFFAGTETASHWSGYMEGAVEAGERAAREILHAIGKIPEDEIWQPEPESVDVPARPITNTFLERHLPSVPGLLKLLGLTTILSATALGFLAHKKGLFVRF

[6] = molecular target: T2, electrophorus electricus acetylcholinesterase (eeAChE); settings: reference value, footnote (a) Zheng et al. 2010; cited from earlier work
[7] = molecular target: T3, equine serum butyrylcholinesterase (eqBuChE); settings: reference value, footnote (a) Zheng et al. 2010; cited from earlier work
[8] = molecular target: T4, ratMAO-A; set-up: MAO-A and MAO-B activities were determined in rat brain homogenate; from tissue; host or cells: rat brain homogenate per the methods; settings: reference value, footnote (a) Zheng et al. 2010; cited from earlier work
[9] = molecular target: T5, ratMAO-B; set-up: MAO-A and MAO-B activities were determined in rat brain homogenate; from tissue; host or cells: rat brain homogenate per the methods; settings: reference value, footnote (a) Zheng et al. 2010; cited from earlier work
[10] = 20 minutes incubation at 37°C, mean ± standard error of the mean, read-out: IC50 eqBuChE

SMILES	IC50 [1] [µM]	IC50 [2] [µM]	IC50 [3, 10] [µM]	BuChE/ AChE ([3]; ratio of IC50 values)	IC50 [4] [µM]	MAO-B/ MAO-A [5]	IC50 [5] [µM]	MAO-B/ MAO-A ([5]; ratio of IC50 values)	BuChE/ AChE [3]	IC50 [3] [µM]	IC50 [6] [µM]	IC50 [7] [µM]	IC50 eqBuChE [7]	IC50 [8] [µM]	IC50 [9] [µM]
C#CCN(Cc1ccc(O)c2ncccc12)C(C#N)C1CCN(Cc2ccccc2)CC1 (centres unmarked) [Compound 2, 2-(1-benzylpiperidin-4-yl)-2-(((8-hydroxyquinolin-5-yl)methyl)(prop-2-ynyl)amino)acetonitrile]	18 ± 5	14.5 ± 3.7	13.5 ± 1.8	0.92	22.1 ± 0.7	1.7	39.5 ± 1.4	–	–	–	–	–	–	–	–
C#CCN(Cc1ccc(O)c2ncccc12)CC1CCN(Cc2ccccc2)CC1 [Compound 3, 5-((((1-benzylpiperidin-4-yl)methyl)(prop-2-ynyl)amino)methyl)quinolin-8-ol]	≥ 100	17 ± 4.7	12.8 ± 1.4	0.75	85.4 ± 3.7	–	19.4 ± 3.2	0.22	–	–	–	–	–	–	–
C#CCN(Cc1ccc(O)c2ncccc12)C(C#N)CC1CCN(Cc2ccccc2)CC1 (centres unmarked) [Compound 4, 3-(1-benzylpiperidin-4-yl)-2-(((8-hydroxyquinolin-5-yl)methyl)(prop-2-ynyl)amino)propanenitrile]	2.79 ± 0.7	5.53 ± 0.5	–	–	9.67 ± 1.5	1.2	12.4 ± 2.5	–	1.1	6.06 ± 0.6	–	–	–	–	–
C#CCN(CCC1CCN(Cc2ccccc2)CC1)Cc1ccc(O)c2ncccc12 [Compound 5, 5-(((2-(1-benzylpiperidin-4-yl)ethyl)(prop-2-ynyl)amino)methyl)quinolin-8-ol]	39.7 ± 16	5.01 ± 0.8	14.5 ± 3.6	2.8	≥ 100	–	50.08 ± 0.5	≥ 0.5	–	–	–	–	–	–	–
C#CCN(CCCC1CCN(Cc2ccccc2)CC1)Cc1ccc(O)c2ncccc12 [Compound 7, 5-(((3-(1-benzylpiperidin-4-yl)propyl)(prop-2-ynyl)amino)methyl)quinolin-8-ol]	61.1 ± 21.4	2.67 ± 0.4	4.52 ± 0.3	1.6	≥ 100	–	34.5 ± 3.5	≥ 0.34	–	–	–	–	–	–	–
C#CCN(C)Cc1ccc(O)c2ncccc12 [Compound M-30]	–	–	–	–	–	1.5	–	–	–	–	114 ± 14.1	≥ 100	inactive	0.037 ± 0.02	0.057 ± 0.02
